Experimental data: patent US20220133669A1, “PHARMACEUTICAL COMPOSITIONS COMPRISING 15-HETRE AND METHODS OF USE THEREOF” (DS Biopharma Limited, priority 2020, published 2022)

Columns and labels:
[1] = tested on: human islet microtissue; assay: 15-HETrE efficacy: human islet microtissue under cytokine stress; assay type: cell-based; details: 50 μM
Experimental: (§1) The aim of the following study was to determine the effects of 15(S)-HETrE activity on diabetes. This aim was accomplished by (1) identifying a cytotoxic threshold of 15(S)-HETrE in islet microtissues and (2) testing the effects of 15(S)-HETrE on human islet microtissue function under conditions of glucotoxicity and cytokine stress.
(§2) From Days 0-13, an islet microtissue model was established and glucotoxicity pre-test performed. Day 14 marked the start of glucotoxicity assay and 12.5 μM, 25 μM and 50 μM 15(S)-HETrE treatment. From Days 16-19, the culture media was renewed, and the compound (15-HETrE) was re-dosed. Day 12 marked the start of the cytokine stress assay for the 12.5 μM, 25 μM and 50 μM 15(S)-HETrE treatment. On Day, 12 an intermediate assessment of the compound effects was also performed (e.g., Day 7 incubation in glucotoxic conditions). On Day 12, a renewal of the culture media and compound treatment was performed. On Days 23 and 26, a renewal of the culture media and compound treatment was also performed. Lastly, on Day 28, an assessment of the compound effects under glucotoxicity/cytokine stress at the end of 14- and 7-day incubation was performed.

[2] = tested on: human islet microtissue; assay: 15-HETrE efficacy: human islet microtissue function under glucotoxic conditions; assay type: cell-based
Experimental: as §1, §2

[3] = tested on: human islet microtissue; assay: Cytotoxicity pretest: ATP content (CellTiter-Glo cell viability) in islet microtissues; assay type: cell-based; details: after 7 days of treatment
Experimental: (§3) From Days 0-7, a human islet microtissue was established. On Day 7, 15-HETrE treatment commenced. From Days 9-12, the culture media was renewed and the compound (15-HETrE) was re-dosed. On Day 14, an assessment on islet cell viability was performed—tissues were lysed to measure ATP content using Promega CellTiter-Glo luminescent cell viability assay. On Day 14, an assessment on islet cell function was also performed—conditioned media from the last 48 hours of the experiment was collected to test chronic insulin secretion. And lastly, on Day 14, insulin was quantified—following dilutions in Krebs-Ringer HEPES buffer, chronic insulin secretion was quantified using STELLUX Chemi Human Insulin ELISA assay.

[4] = tested on: human islet microtissue; assay: Cytotoxicity pretest: chronic insulin secretion (Human Insulin ELISA) of islet microtissues; assay type: cell-based; details: 300 μM; after 7 days of treatment
Experimental: as §3

[5] = Tissue distribution following oral administration of 15-HETrE; assay type: in vivo, rats; details: 500 mg/kg p.o. once daily for 7 days; tissues taken 24 hours after final dose
Experimental: The objective of this study was to examine distribution of orally administered 15-HETrE. Male CRL:CD rats were obtained from Charles River Laboratories. Upon receipt, animals were allowed to acclimatize for 5 days prior to start of testing, housed under a 12 h light/dark cycle, and provided a pellet diet (RM-1) and water ad libitum. Animals were dosed with 15-HETrE or vehicle (0.5% HPMC in ASTM Type 1 water) p.o. once daily for 7 days. Animals were monitored at 0.25, 0.5, and 1 hour post dose. During the treatment period, individual body weight was measured daily as well as clinical signs of behavior and survival.
24 hours after the final p.o. dose, each animal was killed by anaesthetic overdose with an intraperitoneal injection of pentobarbitone. A blood sample was collected from the descending vena cava. Lungs, heart, liver, kidneys, spleen, colon, and an area of shaved skin were harvested from each animal, rinsed in PBS, dabbed dry, weighed, and snap-frozen by immersion in liquid nitrogen. All tissue samples were stored frozen at −80° C.

CCCCC[C@H](O)/C=C/C=C\C/C=C\CCCCCCC(=O)O [15(S)-HETrE]
ATP content [1]: significant decrease | fold stimulation of insulin secretion ([2]; 25 μM, day 14): improved | ATP levels ([2]; 50 μM): significantly decreased | chronic insulin secretion ([2]; day 7): reduced | stimulated insulin secretion ([2]; day 7, 50 μM): significant decrease | basal insulin secretion ([2]; day 7, 12.5, 25 and 50 μM): dose-dependent decrease | chronic insulin secretion ([2]; day 14): reduced | basal insulin secretion ([2]; day 14, 12.5, 25 and 50 μM): dose-dependent decrease | ATP content ([3]; 11.1 μM): significant increase | ATP content ([3]; 300 μM): significant decrease | chronic insulin secretion [4]: significant decrease

CCCCCC(O)/C=C/C=C\C/C=C\CCCCCCC(=O)O (stereo not drawn) [15-HETrE, 15-hydroxy-eicosa-8(Z),11(Z),13(E)-trienoic acid]
tissue distribution of 15-HETrE (heart, kidney, liver, spleen, lung, plasma, skin, colon) vs control animals [5]: targeted all organs tested, including the skin
